Laboratory results published in US10441562B2, “Aromatic farnesyl compound and application thereof” (INSTITUTE OF MICROBIOLOGY, CHINESE ACADEMY OF SCIENCES, priority 2015, dated 2019).
Marks after values point to notes of the source that are not given here.

Columns and labels:
[1] = test system: hyperglycemia KK-A^y mice; test: liver tissue section of hyperglycemia KK-A^y mice (HE); assay type: in vivo; conditions: FIG. 1, 10 and 20 mg/kg
Procedure: Detect the fasting glucose of male KK-A^y mice, which are 6-8 weeks with the weight of 28-32 g, and divide them into different groups according to the blood sugar level and body weight: (2) model control group, (3) which is administered by compound S13 with the dose of 1 mg/kg, (4) which is administered by compound S13 with the dose of 5 mg/kg, (5) which is administered by compound S13 with the dose of 10 mg/kg, (6) which is administered by compound S13 with the dose of 20 mg/kg, (7) which is administered by compound S28 with the dose of 1 mg/kg, (8) which is administered by compound S28 with the dose of 5 mg/kg, (9) which is administered by compound S28 with the dose of 10 mg/kg, (10) which is administered by compound S28 with the dose of 20 mg/kg, (11) which is administered by metformin with the dose of 8 g/kg, (12) which is administered by compound S13 with the dose of 2.5 mg/kg and metformin with the dose of 4 g/kg, (13) which is administered by compound S13 with the dose of 5 mg/kg and metformin with the dose of 4 g/kg, (14) which is administered by compound S28 with the dose of 2.5 mg/kg and metformin with the dose of […], (15) which is administered by compound S28 with the dose of 5 mg/kg and metformin with the dose of […]. Each group has 8 mice, and is administrated successively for 3 weeks. Model control group is given with equal amounts of 0.5% CMC-Na. […]

[2] = test system: hyperglycemia KK-A^y mice; test: glucose tolerance test (OGTT) in hyperglycemia KK-A^y mice; assay type: in vivo; conditions: OGTT 12th day, glucose 2.0 g/kg oral
Procedure: KK-A^y mice are purchased from Chinese Academy of Medical Sciences & Peking Union Medical College Institute of Animal Studies. Experiments are carried out after adapting to the environment (T=20-24° C., constant humidity: 50-60%, 12 hours light exposure (8:00-20:00), soundproof, free feeding and drinking) for 1 week. Glucometer is purchased from Roche.
Each group has 8 mice, and is administrated successively for 3 weeks. Model control group is given with equal amounts of 0.5% CMC-Na.
3) Glucose tolerance test (OGTT): glucose tolerance is detected at the 12th day after administration. The mice are fasted for 12 hours and blood is collected (0 h). After being given with glucose (2.0 g/kg) by oral administration, blood is collected from tip of tail to detect the blood sugar level after 30 min, 60 min and 120 min respectively (see table 11).

[3] = test system: rats fed with high fat diet; test: blood lipid of rats fed with high fat diet; assay type: in vivo, SD rats; conditions: 50 mg/kg intragastric, 10 days, serum
From the text: Serum total cholesterol kit (batch number 20131112), low density lipoprotein LDL-C kit (batch number 20140114), high density lipoprotein HDL-C kit (batch number 20140413), triglyceride TG kit (batch number 20131226), superoxide dismutase SOD kit (batch number 20140213) and glutamic-pyruvic transaminase ALT kit (batch number 20131006) are purchased from Nanjing Jiancheng Bioengineering Institute.
Methods: after being acclimatized for 1 week, the 200±20 g healthy male SD rats are randomly divided into 4 groups of 8 animals in each. The control group is fed with normal diet, while the other groups are fed with high-fat diet, which is normal diet with 1% cholesterol, 0.2% pig bile sal, 10% lard and 10% egg yolk powder. After being fed for 3 weeks, 10 mg/ml extract solution of 1 ml (which corresponds to 50 mg/kg) is given to different groups of rats by intragastric administration for 10 days successively, and the control group and model group are given with equal amounts of saline. After the last administration, blood is taken to be centrifuged at 3000 rpm in 4[…], and then detect serum total cholesterol, low density lipoprotein and triglyceride TG

HMG-CoA reductase = target: T1, HMG-CoA reductase (Homo sapiens, UniProt P04035); test: HMG-CoA reductase inhibitory activity test in vitro; assay type: biochemical
T1 sequence (P04035 426-888 limits assumed): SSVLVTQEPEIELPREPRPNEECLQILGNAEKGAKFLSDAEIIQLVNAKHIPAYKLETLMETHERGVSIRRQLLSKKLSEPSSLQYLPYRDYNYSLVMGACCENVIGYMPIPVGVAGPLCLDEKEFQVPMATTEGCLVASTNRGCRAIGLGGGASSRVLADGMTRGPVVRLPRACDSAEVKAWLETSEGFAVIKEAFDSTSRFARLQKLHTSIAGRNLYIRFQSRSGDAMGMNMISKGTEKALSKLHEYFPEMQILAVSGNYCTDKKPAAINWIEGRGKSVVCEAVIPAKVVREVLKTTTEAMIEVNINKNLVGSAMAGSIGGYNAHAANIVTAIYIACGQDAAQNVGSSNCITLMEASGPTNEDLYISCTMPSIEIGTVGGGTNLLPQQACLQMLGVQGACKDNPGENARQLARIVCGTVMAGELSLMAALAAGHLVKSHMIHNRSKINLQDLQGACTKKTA

CC(C)=CCC/C(C)=C/CCC1=C[C@H](c2cc(O)ccc2O)OC1=O [S13, (R,E)-5-(2,5-dihydroxyphenyl)-3-(4,8-dimethylnona-3,7-dien-1-yl)furan-2(5H)-one]
fat vacuole in hepatocyte (liver tissue section, HE) [1]: almost disappear
glucose tolerance, blood sugar 0 min ([2]; 1 mg/kg, groups 3, 7): 9.6
glucose tolerance, blood sugar 0 min ([2]; 5 mg/kg, groups 4, 8): 6.9*
glucose tolerance, blood sugar 0 min ([2]; 10 mg/kg, groups 5, 9): 7.96
glucose tolerance, blood sugar 0 min ([2]; 20 mg/kg, groups 6, 10): 6.90*
glucose tolerance, blood sugar 30 min ([2]; 1 mg/kg, groups 3, 7): 12.5**
glucose tolerance, blood sugar 30 min ([2]; 5 mg/kg, groups 4, 8): 9.1**
glucose tolerance, blood sugar 30 min ([2]; 10 mg/kg, groups 5, 9): 16.95**
glucose tolerance, blood sugar 30 min ([2]; 20 mg/kg, groups 6, 10): 14.00**
glucose tolerance, blood sugar 60 min ([2]; 1 mg/kg, groups 3, 7): 10.2**
glucose tolerance, blood sugar 60 min ([2]; 5 mg/kg, groups 4, 8): 9.1**
glucose tolerance, blood sugar 60 min ([2]; 10 mg/kg, groups 5, 9): 13.20**
glucose tolerance, blood sugar 60 min ([2]; 20 mg/kg, groups 6, 10): 12.45**
glucose tolerance, blood sugar 120 min ([2]; 1 mg/kg, groups 3, 7): 8.2**
glucose tolerance, blood sugar 120 min ([2]; 5 mg/kg, groups 4, 8): 5.2**
glucose tolerance, blood sugar 120 min ([2]; 10 mg/kg, groups 5, 9): 10.93**
glucose tolerance, blood sugar 120 min ([2]; 20 mg/kg, groups 6, 10): 11.90**
ALT [3]: 61.3* U/L
HDL-C [3]: 0.99 mmol/L
LDL-C [3]: 0.36** mmol/L
SOD [3]: 2.04 U/L
TC [3]: 2.13* mmol/L
TG [3]: 0.44* mmol/L
IC50 (HMG-CoA reductase): 7.9 µM

CC(C)=CCC/C(C)=C/CCC1=C[C@@H](c2cc(O)ccc2O)OC1=O [S28, (S,E)-5-(2,5-dihydroxyphenyl)-3-(4,8-dimethylnona-3,7-dien-1-yl)furan-2(5H)-one]
fat vacuole in hepatocyte (liver tissue section, HE) [1]: almost disappear
glucose tolerance, blood sugar 0 min ([2]; 1 mg/kg, groups 3, 7): 9.5
glucose tolerance, blood sugar 0 min ([2]; 5 mg/kg, groups 4, 8): 6.8**
glucose tolerance, blood sugar 0 min ([2]; 10 mg/kg, groups 5, 9): 7.6*
glucose tolerance, blood sugar 0 min ([2]; 20 mg/kg, groups 6, 10): 6.9**
glucose tolerance, blood sugar 30 min ([2]; 1 mg/kg, groups 3, 7): 11.3**
glucose tolerance, blood sugar 30 min ([2]; 5 mg/kg, groups 4, 8): 9.3**
glucose tolerance, blood sugar 30 min ([2]; 10 mg/kg, groups 5, 9): 16.9**
glucose tolerance, blood sugar 30 min ([2]; 20 mg/kg, groups 6, 10): 14.3**
glucose tolerance, blood sugar 60 min ([2]; 1 mg/kg, groups 3, 7): 10.5**
glucose tolerance, blood sugar 60 min ([2]; 5 mg/kg, groups 4, 8): 9.3**
glucose tolerance, blood sugar 60 min ([2]; 10 mg/kg, groups 5, 9): 13.2**
glucose tolerance, blood sugar 60 min ([2]; 20 mg/kg, groups 6, 10): 12.4**
glucose tolerance, blood sugar 120 min ([2]; 1 mg/kg, groups 3, 7): 8.3**
glucose tolerance, blood sugar 120 min ([2]; 5 mg/kg, groups 4, 8): 5.1**
glucose tolerance, blood sugar 120 min ([2]; 10 mg/kg, groups 5, 9): 10.9**
glucose tolerance, blood sugar 120 min ([2]; 20 mg/kg, groups 6, 10): 11.9**
ALT [3]: 72.1* U/L
HDL-C [3]: 0.97 mmol/L
LDL-C [3]: 0.38** mmol/L
SOD [3]: 2.10* U/L
TC [3]: 1.98** mmol/L
TG [3]: 0.45* mmol/L
IC50 (HMG-CoA reductase): 8.9 µM
